Assay results from a melting point compilation (Tetko et al.; mined from patent text by program, amines drawn as free bases though some values may be those of a salt).

Point of comparison: `N#Cc1ccc(-c2cn(-c3ccc(OCC(F)(F)F)cc3)cn2)cc1`, melting point 179 °C. Against it:
- O=C(Nc1cc(-c2nnc(Cc3ccccc3)o2)ccn1)c1ccccc1 — higher, 187 to 189 °C
- N#CCCNC(=S)C1=CC(CF)(CF)Oc2ccc(C(F)(F)F)cc21 — lower, 105 to 106 °C
- CN(CCCc1cccc(Oc2ccc(C(F)(F)F)cc2)c1)N=O — lower, 75 to 76 °C
- COc1ccccc1CC1NC(=O)NC1=O (configuration not stated) — higher, 186 °C
- O=Cc1cn(-c2ccccn2)nc1-c1ccc([N+](=O)[O-])o1 — higher, 191 to 192 °C
- Cc1c(C)c2c(c(C)c1N)C(c1ccc(C3OCCO3)cc1)CO2 (configuration not stated) — lower, 125 to 136 °C
- COC(=O)[C@H](CS)NC(=O)[C@H](CO)NC(=O)OC(C)(C)C — lower, 72 to 74 °C
- Cc1noc(C)c1C(=O)Nc1ccc(-n2nc(C(F)(F)F)cc2C(F)(F)F)cc1 — not separable, 179 to 180 °C
- C=C1N(c2ccc(Cl)cc2)C(=O)OC12CCN(CCC=C(c1ccc(F)cc1)c1ccc(F)cc1)CC2 — higher, 186 to 188 °C
- CC(C)(S)CN1CCN(c2ccc(C#N)cc2)CC1 — lower, 92 to 94 °C
- CC(C)(N)Cc1c[nH]c2ccccc12 — lower, 72 to 74 °C
- O=C[C@H]1CC[C@H](SCc2ccc(Cl)cc2)CC1 — lower, 44 to 46 °C
- CCCCCCCCCCCCSc1nnn(C(C(=O)Nc2c(OC)cc(OC)cc2OC)c2ccccc2)n1 (configuration not stated) — lower, 141 to 143 °C
- CCCCOC(=O)c1ccc2c(C(=O)c3ccc(OCCN4CCCCC4)cc3)c(-c3ccc(O)cc3)sc2c1 — lower, 87 to 90 °C
- O=C(O)CCc1cnoc1-c1ccc(OC(F)(F)F)cc1 — lower, 116 to 118 °C
- CC(C)Oc1ccc(Oc2ccc3c(c2)c(C(=O)O)c(CC(=O)O)n3-c2ccc(C(C)C)cc2)cc1 — higher, 205 to 210 °C
- Nc1c(C(=O)CCC(=O)O)cccc1C(=O)c1ccccc1 — lower, 161 to 162 °C
- Clc1nccc(-n2ccc3c(SCc4ccccc4)cccc32)n1 — lower, 159 to 161 °C
- N=C(N)Nc1nc2ccc([N+](=O)[O-])cc2[nH]1 — higher, 305 to 307 °C
- O=C(O)Cc1c(C(=O)c2ccc(Cl)cc2)[nH]c2cc(F)ccc12 — higher, 214 °C
- COC(=O)CCC(O)C(=O)OC(C)(C)C (configuration not stated) — lower, 36 to 37 °C
- CC(C(=O)N(C)C)n1nc(-c2ccccc2)cc1-c1ccccc1 (configuration not stated) — lower, 133 to 135 °C
- CCOC(=O)CCCCCOc1cc(C=CC2=C(C#N)C(=C(C#N)C#N)OC2(C)C)ccc1N — lower, 164 °C
- CCCc1ccc(-c2ccc(-c3ccc(F)s3)c(F)c2)cc1 — lower, 64 °C
- Cc1cc(Nc2ccnc(Nc3ccc(S(=O)(=O)N(C)C4CCN(C)CC4)cc3)n2)ccc1F — lower, 110 to 120 °C
- CCCCCCCCCC(=O)OC(=C(OC(=O)CCCCCCCCC)c1ccccn1)c1ccccn1 — lower, 89 to 90 °C
- CCOC(=O)c1oc2cccc(CCO)c2c1C — lower, 88 to 90 °C
- OCCCCCCCCN1CCC(C(O)(c2ccc(F)cc2)c2ccc(F)cc2)CC1 — lower, 124 to 125 °C
- CC(=O)Nc1nc2c(Oc3cc(-c4ccc(C(F)(F)F)nc4N(C)CC4CCCCN4CC(C)C)ncn3)cccc2s1 (configuration not stated) — lower, 123 to 125 °C
- CN1C(=O)C(c2ccc(OC(F)F)cc2)(c2cccc(COCCF)c2)N=C1N (configuration not stated) — lower, 40 to 43 °C
- CCOC(=O)c1ccc(COc2cc(O)c(C(C)=O)cc2CC)cc1O — lower, 145 to 146 °C
- CC(=O)C(O)C1OC(O)(N=C=O)C(O)(C(C)=O)C(O)(C(C)=O)C1(O)C(C)=O (configuration not stated) — lower, 113 to 115 °C
- CC(=O)N1CCN(c2cc(-c3cnc4c(c3)N(Cc3cc(Cl)ccc3C(F)(F)F)CCN4)ccn2)CC1 — higher, 241 °C
- Cc1c(-c2ccc(O)cc2)sc(C=O)c1-c1ccc(O)c(C=O)c1 — higher, 228 to 230 °C
- CCOC(=O)c1ncn2c1CN(C)C(=S)c1ccccc1-2 — lower, 164 to 165 °C
- NC1(C2CCN(c3c(F)cc4c(=O)c(C(=O)O)cn(C5CC5)c4c3F)C2)CC1 (configuration not stated) — higher, 227 to 230 °C
- COc1ccc(N2CCN(c3ccc(OC)nc3-c3ccc(N(C)C)cc3)CCC2=O)cc1 — higher, 192 to 193 °C
- CN(C)C(=O)c1ccc([N+](=O)[O-])cc1S(=O)(=O)NC(C)(C)C — lower, 138 to 141 °C
- COC(=O)c1sc(Cl)c(Cl)c1NC(C)=O — lower, 136 to 138 °C
- CC1CCC2(C)C(=CCC3C4CCC(=O)C4(C)CCC32)C1 (configuration not stated) — lower, 148 to 150 °C
- Cc1cccc(-c2c(C)n(C)c(=O)n(C)c2=O)c1 — lower, 137 to 139 °C
- CCOC(=O)c1ccc(OCC(=NO)c2ccc3c(c2)C(C)(C)CCC3(C)C)cc1O — lower, 130 °C
- CCCCCc1c(C(C)C)nc(C(C)C)c(CNC)c1-c1ccc(F)cc1 — lower, 77 to 79 °C
- Cc1ccc(-c2nn(-c3cccc([N+](=O)[O-])c3)c(N)c2C(N)=O)cc1 — higher, 237 to 238 °C
- Cc1cc(C(=O)O)c2[nH]c3c(c2c1)CCCC3 — higher, 225 °C
- CN(Cc1cc(C(F)(F)F)cc(C(F)(F)F)c1)C(=O)c1ncc2ccccc2c1-c1ccc(F)cc1 — lower, 134 to 135 °C
- COc1ccc(S(=O)(=O)N(CC(N)=O)c2ccc(Cl)cc2C(O)c2c(Cl)cccc2Cl)cc1OC (configuration not stated) — lower, 128 °C
- COc1nc(C)cnc1NS(=O)(=O)c1cccnc1-c1ccc(C)cc1 — higher, 184 to 185 °C
- CC(C)(Cc1ccccc1)C(NC(=O)c1ccc(Cl)cc1)Nc1c(Nc2cccnc2Cl)c(=O)c1=O (configuration not stated) — higher, 236 to 237 °C
- CN1CCN(S(=O)(=O)c2cccc(NC(=O)c3cnn4c(C(F)F)cc(-c5ccc(Cl)c(Cl)c5)nc34)c2)CC1 — higher, 229 °C
- CC(Br)C(=O)c1cc(C(N)=O)cs1 (configuration not stated) — lower, 116 to 117 °C
- COc1ccc(NC(=O)CN(C(=O)CNC(=O)Nc2cccc(C)c2)c2ccccc2)cc1 — higher, 194 °C
- N#Cc1nc(-c2ccc(=O)[nH]c2)c(-c2ccccc2)nc1N — higher, 243 to 248 °C
- COc1cc(OC)nc(N2CCN(Cc3ccc(CNC(C)=O)cc3)CC2)n1 — lower, 130 to 131 °C
- CCOC(=O)c1cn(-c2nc(NCc3ccc(OC)cc3)c(F)cc2F)c2c(Cl)c(F)c(F)cc2c1=O — higher, 197 to 200 °C
- CC1(C)CCc2ccc(C(=O)O)cc2CC1 — lower, 166 to 171 °C
- O=c1[nH]c(=Cc2ccccc2[N+](=O)[O-])c(=O)[nH]c1=Cc1ccc(OCc2ccccc2)cn1 — higher, 295 to 296 °C
- Nc1ccc2oc3c(c2c1)CCCCC3 — lower, 98 to 99 °C
- COc1ccc(-c2cccc(F)c2)cc1 — lower, 63 to 64 °C
- Cc1onc(-c2ccc(F)cc2)c1-c1ccc(S(N)(=O)=O)c(F)c1 — higher, 180 to 182 °C
- COC1=CN=C(COC(c2ccccc2)(c2ccccc2)c2ccccc2)CC1=O — higher, 185 to 187 °C
- COc1ccc(C(=O)C2=C(C)C(=O)C3C=CC=CC3C2=O)cc1 (configuration not stated) — lower, 150 to 151 °C
- OCc1cn(Cc2cc(OCc3ccccc3)cc(OCc3ccccc3)c2)cc1-c1ccccc1 — lower, 115 to 116 °C
- c1ccc(-c2cc(-c3nc(-c4ccccc4)nc(-c4ccccc4)n3)c(-c3nccc4ccccc34)c(-c3cc4ccccc4c4ccccc34)c2)cc1 — higher, 272 °C
- N#Cc1cccnc1N1CCN(CC(=O)Nc2ccccc2[N+](=O)[O-])CC1 — lower, 134 to 136 °C
- CN(CCc1ccccc1)C(=O)Cn1cc(C=Cc2nnn[nH]2)c2cc(OCc3ccccc3)ccc21 — higher, 203 to 205 °C
- CS(=O)(=O)c1ccc(-n2nc(C(F)(F)F)nc2-c2ccc(Br)cc2)cn1 — lower, 141 to 143 °C
- O=C(NCc1ccc(Cl)cc1)c1ccc2sc(CN3CCOCC3)cc2c1O — higher, 200 °C
- CCOC(=O)c1cn(Cc2ccccc2)nc1OCc1ccc(OC)c(OCc2nc(-c3ccco3)oc2C)c1 — lower, 147 to 148 °C
- CC(C)C1(CO)Cc2cc(OCC(=O)O)c(Cl)c(Cl)c2C1=O (configuration not stated) — higher, 200 to 202 °C
- CCCCOC(=O)C(NC(=O)OCc1ccccc1)c1cccs1 (configuration not stated) — lower, 37 °C
- CCCCOC(=O)NS(=O)(=O)/C=C/c1cc(OCCCC)nn1Cc1ccc(Cl)cc1Cl — lower, 137 to 138 °C
- CCOC(=O)Cc1ccc(NC(=O)C(NS(=O)(=O)c2ccc(Cl)cc2)C(C)C)cc1 (racemic) — lower, 100 to 102 °C
- CCOC(=O)c1cnc2cc(NC(C)=O)ccc2c1O — higher, 295 to 300 °C
- COc1ccc(C(=O)N2CC[C@@H](O)C2=O)cc1 — lower, 121 to 122 °C
- CN1C(=O)Cc2cc(F)ccc21 — lower, 128 to 130 °C
- O=c1c2ccccc2[nH]n2cccc12 — higher, > 300 °C
- CC(=O)N1c2ccccc2C=Cc2ccccc21 — lower, 121 °C
- CNC(=O)C1CC(C)CCC1C(C)C (configuration not stated) — lower, 95 to 97 °C
- COc1ccc2c(n1)c(CC[N+](=O)[O-])c1n2CCCC1 — lower, 96 to 97 °C
- CCOCc1nc2c(N)nc3ccccc3c2n1CCCC1(C)OCCO1 — lower, 150 to 152 °C
- N#Cc1c(Cl)ccc2[nH]c(Sc3cccc4c(=O)cc[nH]c34)nc12 — higher, 376 °C
- Cc1nc2c(N)nc3ccccc3c2n1CCCCNC(=O)C(C)C — lower, 160 to 161 °C
- CCCCCCCC/C=C\CCCCCCCC(O)CCCNC(=O)CCNC(C)=O (configuration not stated) — lower, 103 to 108 °C
- CS(=O)(=O)NC(=O)C(Cc1ccc(OCc2ccccc2)cc1)NC(=O)c1cn2cc(-c3ccc(Cl)cc3)ccc2n1 (configuration not stated) — higher, 232 °C
- CCOc1cc2cc(C(=O)OC)c(C(=O)OC)c(-c3ccncc3)c2cc1OCC — lower, 149 to 150 °C
- O=C(O)Cc1ccc(S(=O)c2ccc(Cl)cc2)cc1 (configuration not stated) — lower, 139 to 141 °C
- CCc1c(CNS(=O)(=O)Cc2cccc(C(F)(F)F)c2)nn(-c2ccc(Cl)cc2Cl)c1-c1ccc(Br)cc1 — lower, 108 °C
- CCCCc1nc2c(N)nc3ccccc3c2n1CCNS(C)(=O)=O — higher, 210 to 211 °C
- NS(=O)(=O)OCCCOc1ccccc1 — lower, 83 to 85 °C
- c1ccc(-c2ccccc2OCCCCOc2ccccc2-c2ccccc2)cc1 — lower, 62 to 67 °C
- C=C1OC(=NN)C(c2ccccc2)C(=O)N1C(C)(C)C(=O)Nc1cc(Cl)cc(Cl)c1 (configuration not stated) — lower, 146 to 149 °C
- COc1cccc(C2=C(CN(C)C)COc3ccccc32)c1 — lower, 68 to 71 °C
- COc1cc2c(c(Cl)c1Cl)C(=O)C(C(C)C)C2 (configuration not stated) — lower, 118 to 119 °C
- CCc1cccc(CC)c1N(CCl)C(=O)c1ccccc1 — lower, 98 to 99 °C
- CCOc1cc2cc(CO)cc(-c3ccnc(NN)c3)c2cc1OCC — lower, 147 to 149 °C
